Reference: PMC2902569 (Nature biotechnology, 2010)

Target: T1, Met30 (Saccharomyces cerevisiae, UniProt P39014)
T1 sequence (P39014 1-640): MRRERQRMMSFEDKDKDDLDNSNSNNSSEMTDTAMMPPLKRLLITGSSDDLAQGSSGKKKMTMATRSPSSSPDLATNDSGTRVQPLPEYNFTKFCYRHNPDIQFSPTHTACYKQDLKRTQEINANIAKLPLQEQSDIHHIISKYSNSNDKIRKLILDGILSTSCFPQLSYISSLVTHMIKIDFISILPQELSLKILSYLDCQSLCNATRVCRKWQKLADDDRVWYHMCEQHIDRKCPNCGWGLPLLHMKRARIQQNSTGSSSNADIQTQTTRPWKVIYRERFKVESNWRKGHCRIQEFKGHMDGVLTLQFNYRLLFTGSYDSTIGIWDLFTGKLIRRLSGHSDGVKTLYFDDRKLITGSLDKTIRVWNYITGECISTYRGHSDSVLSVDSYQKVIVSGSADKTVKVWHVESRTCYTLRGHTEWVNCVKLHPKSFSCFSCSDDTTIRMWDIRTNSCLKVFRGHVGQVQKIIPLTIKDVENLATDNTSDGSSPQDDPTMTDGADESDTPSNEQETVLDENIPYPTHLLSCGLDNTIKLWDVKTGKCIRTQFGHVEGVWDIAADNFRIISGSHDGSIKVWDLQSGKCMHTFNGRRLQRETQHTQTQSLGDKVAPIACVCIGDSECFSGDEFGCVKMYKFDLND
Assay: DARTS, thermolysin or subtilisin protection, immunoblot
Assay type: biochemical
Conditions: yeast lysate (Skp1 present); also in vitro translated Met30

O=C1c2ccccc2-c2nc3nonc3nc21 [SMER3]
DARTS, thermolysin or subtilisin protection, immunoblot: we observed SMER3-dependent protection of Met30
